The species entered for assay [1] is Mus musculus. The assay is described as follows: In vitro inhibition of LTC4 biosynthesis in plasma protein-free cultures of zymosan-stimulated mouse macrophages. The format is functional.
For assay [2], the species on record is Homo sapiens. The experiment in a line: In vitro inhibition of LTB4 biosynthesis in A-23187-stimulated human whole blood. The format is functional.

With `CO[C@@]1(c2cc(F)cc(OCc3ccc4c(ccc(=O)n4C)c3)c2)CCO[C@H](C)C1`, the IC50 was 9 nM in assay [1] and 670 nM in assay [2].

For `CO[C@]1(c2cc(F)cc(OCc3ccc4c(ccc(=O)n4C)c3)c2)CCO[C@@H](C)C1`, in assay [1], the IC50 came out at 0.4 nM.

In the case of `CO[C@@]1(c2cc(F)cc(OCc3ccc4c(ccc(=O)n4C)c3)c2)CCO[C@@H](C)C1`, the IC50 turned out to be 60 nM in assay [1] and 1760 nM in assay [2].

Consider `CO[C@]1(c2cc(F)cc(OCc3ccc4c(ccc(=O)n4C)c3)c2)CCO[C@H](C)C1`, for which the half-inhibitory concentration (IC50) was 8 nM in assay [1] and 140 nM in assay [2].

(Values after ChEMBL document CHEMBL1126825, “4-Methoxy-2-methyltetrahydropyrans: chiral leukotriene biosynthesis inhibitors, related to ICI D2138, which display enantioselectivity” (J Med Chem, 1993).)
